# Results taken from US8524716B2, “Macrocyclic indoles as hepatitis C virus inhibitors” (priority 2007, dated 2013).
# What was measured:
# [1] = from C=CCCNC(=O)Cn1c(-c2ccc3nc(-c4cc(OC)ccc4-c4ccc(Cl)cc4)ccc3c2)c(C2CCCCC2)c2ccc(C(=O)NCCC=C)cc21; rcm bond; Hoveyda-Grubbs 1st generation catalyst; DCE; 1.32 mM; 80.0 °C
# [2] = from C=CCCNC(=O)c1cc(C)c2c(C3CCCCC3)c(-c3ccc4nc(-c5cc(OC)ccc5-c5ccc(Cl)cc5)ccc4c3)n(C(=O)NCCC=C)c2c1; rcm bond; 15-membered ring; Hoveyda-Grubbs 1st gen (0.42 eq); DCE; 1.32 mM; 80.0 °C
smiles,measurement,setting,value
COc1ccc(-c2ccc(Cl)cc2)c(-c2ccc3cc(-c4c(C5CCCCC5)c5ccc6cc5n4CC(=O)NCCC=CCCNC6=O)ccc3n2)c1,"ring closure, yield of all isomers",[1],30%
same,"ring closure, isolated yield",[2],30%
